Measurements as given in ChEMBL document CHEMBL1649488, “In vitro activities of echinocandins against Candida krusei determined by three methods: MIC and minimal fungicidal concentration measurements and time-kill studies” (2009).
≈ marks a conversion by molar mass, not a printed value. Starred links: 1 amine or outer side, 2 acyl side, 3 side chain; linkers in the order of their positions; H or OH if unused. Positions of bridges follow the written chain, without caps; N, C: chain ends. Non-standard residues stand in square brackets, D forms with d. Residues, ends and D or L forms follow the SMILES beside them. *: point of attachment. pTerphenylCO(4''-OnC5H11) = CCCCCOc1ccc(-c2ccc(-c3ccc(C(=O)*)cc3)cc2)cc1; Orn(4R-OH,5R-OH) = O=C([C@H](C[C@@H](O)[C@@H](O)N[*:3])N[*:1])[*:2]; hTyr(3S-OH,4S-OH) = N[C@H](C(=O)O)[C@H](O)[C@@H](O)c1ccc(O)cc1; Pro(3S-OH,4S-Me) = C[C@H]1CN[C@H](C(=O)O)[C@H]1O; Hyp = O=C(O)[C@@H]1C[C@@H](O)CN1

Columns and labels:
Format in all cases: functional
[1] = tested on: Pichia kudriavzevii; test: Fungicidal activity against Candida krusei CK2 bloodstream forms after 24 hrs by time-kill analysis; conditions: CK2, 24 h
[2] = tested on: Pichia kudriavzevii; test: Antifungal activity against Candida krusei EU123 bloodstream forms after 24 hrs by time-kill analysis; conditions: EU123, 24 h
[3] = tested on: Pichia kudriavzevii; test: Antifungal activity against Candida krusei ATCC 6258 bloodstream forms assessed as time to achieve 50% fungal growth reduction at 8 mg/L by time-kill analysis
[4] = tested on: Pichia kudriavzevii; test: Antifungal activity against Candida krusei ATCC 6258 bloodstream forms assessed as minimum concentration producing >= 100% growth reduction after 48 hrs by M27-A3 microdilution method; conditions: ATCC 6258, 48 h
[5] = tested on: Pichia kudriavzevii; test: Antifungal activity against Candida krusei ATCC 6258 bloodstream forms assessed as time to achieve 50% fungal growth reduction at 2 mg/L by time-kill analysis
[6] = tested on: Pichia kudriavzevii; test: Antifungal activity against Candida krusei ATCC 6258 bloodstream forms assessed as time to achieve 99% fungal growth reduction at 8 mg/L by time-kill analysis
[7] = tested on: Pichia kudriavzevii; test: Antifungal activity against Candida krusei ATCC 6258 bloodstream forms assessed as time to achieve 99.9% fungal growth reduction at 0.12 mg/L by time-kill analysis
[8] = tested on: Pichia kudriavzevii; test: Antifungal activity against Candida krusei ATCC 6258 bloodstream forms assessed as minimum concentration producing >= 50% growth reduction after 24 hrs by M27-A3 microdilution method; conditions: ATCC 6258, 24 h
[9] = tested on: Pichia kudriavzevii; test: Antifungal activity against Candida krusei ATCC 6258 bloodstream forms assessed as time to achieve 99.9% fungal growth reduction at 0.5 mg/L by time-kill analysis
[10] = tested on: Pichia kudriavzevii; test: Antifungal activity against Candida krusei CK6 bloodstream forms after 24 hrs by time-kill analysis; conditions: CK6, 24 h
[11] = tested on: Pichia kudriavzevii; test: Antifungal activity against Candida krusei ATCC 6258 bloodstream forms assessed as time to achieve 99% fungal growth reduction at 2 mg/L by time-kill analysis
[12] = tested on: Pichia kudriavzevii; test: Antifungal activity against Candida krusei ATCC 6258 bloodstream forms assessed as time to achieve 99% fungal growth reduction at 0.5 mg/L by time-kill analysis
[13] = tested on: Pichia kudriavzevii; test: Fungicidal activity against Candida krusei ATCC 6258 bloodstream forms after 48 hrs by M27-A3 microdilution method
[14] = tested on: Pichia kudriavzevii; test: Antifungal activity against Candida krusei ATCC 6258 bloodstream forms assessed as time to achieve 50% fungal growth reduction at 0.5 mg/L by time-kill analysis
[15] = tested on: Pichia kudriavzevii; test: Fungicidal activity against Candida krusei EU123 bloodstream forms after 24 hrs by time-kill analysis; conditions: EU123, 24 h
[16] = tested on: Pichia kudriavzevii; test: Antifungal activity against Candida krusei ATCC 6258 bloodstream forms assessed as time to achieve 90% fungal growth reduction at 8 mg/L by time-kill analysis
[17] = tested on: Pichia kudriavzevii; test: Fungicidal activity against Candida krusei EU220 bloodstream forms after 24 hrs by time-kill analysis; conditions: EU220, 24 h
[18] = tested on: Pichia kudriavzevii; test: Antifungal activity against Candida krusei CK18 bloodstream forms after 24 hrs by time-kill analysis; conditions: CK18, 24 h
[19] = tested on: Pichia kudriavzevii; test: Fungicidal activity against Candida krusei CK1 bloodstream forms after 24 hrs by time-kill analysis; conditions: CK1, 24 h
[20] = tested on: Pichia kudriavzevii; test: Fungicidal activity against Candida krusei CK18 bloodstream forms after 24 hrs by time-kill analysis; conditions: CK18, 24 h
[21] = tested on: Pichia kudriavzevii; test: Antifungal activity against Candida krusei CK1 bloodstream forms after 24 hrs by time-kill analysis; conditions: CK1, 24 h
[22] = tested on: Pichia kudriavzevii; test: Antifungal activity against Candida krusei ATCC 6258 bloodstream forms assessed as minimum concentration producing >= 100% growth reduction after 24 hrs by M27-A3 microdilution method; conditions: ATCC 6258, 24 h
[23] = tested on: Pichia kudriavzevii; test: Antifungal activity against Candida krusei ATCC 6258 bloodstream forms assessed as time to achieve 99.9% fungal growth reduction at 2 mg/L by time-kill analysis
[24] = tested on: Pichia kudriavzevii; test: Antifungal activity against Candida krusei ATCC 6258 bloodstream forms assessed as time to achieve 90% fungal growth reduction at 0.12 mg/L by time-kill analysis
[25] = tested on: Pichia kudriavzevii; test: Antifungal activity against Candida krusei CK2 bloodstream forms after 24 hrs by time-kill analysis; conditions: CK2, 24 h
[26] = tested on: Pichia kudriavzevii; test: Antifungal activity against Candida krusei EU220 bloodstream forms after 24 hrs by time-kill analysis; conditions: EU220, 24 h
[27] = tested on: Pichia kudriavzevii; test: Fungicidal activity against Candida krusei CK6 bloodstream forms after 24 hrs by time-kill analysis; conditions: CK6, 24 h
[28] = tested on: Pichia kudriavzevii; test: Antifungal activity against Candida krusei ATCC 6258 bloodstream forms assessed as time to achieve 50% fungal growth reduction at 0.12 mg/L by time-kill analysis
[29] = tested on: Pichia kudriavzevii; test: Antifungal activity against Candida krusei CY118 bloodstream forms after 24 hrs by time-kill analysis; conditions: CY118, 24 h
[30] = tested on: Pichia kudriavzevii; test: Antifungal activity against Candida krusei ATCC 6258 bloodstream forms assessed as minimum concentration producing >= 50% growth reduction after 48 hrs by M27-A3 microdilution method; conditions: ATCC 6258, 48 h
[31] = tested on: Pichia kudriavzevii; test: Antifungal activity against Candida krusei ATCC 6258 bloodstream forms assessed as time to achieve 99.9% fungal growth reduction at 8 mg/L by time-kill analysis
[32] = tested on: Pichia kudriavzevii; test: Antifungal activity against Candida krusei ATCC 6258 bloodstream forms assessed as time to achieve 90% fungal growth reduction at 2 mg/L by time-kill analysis
[33] = tested on: Pichia kudriavzevii; test: Antifungal activity against Candida krusei ATCC 6258 bloodstream forms assessed as time to achieve 90% fungal growth reduction at 0.5 mg/L by time-kill analysis
[34] = tested on: Pichia kudriavzevii; test: Antifungal activity against Candida krusei ATCC 6258 bloodstream forms after 24 hrs by time-kill analysis; conditions: ATCC 6258, 24 h
[35] = tested on: Pichia kudriavzevii; test: Antifungal activity against Candida krusei ATCC 6258 bloodstream forms assessed as time to achieve 99% fungal growth reduction at 0.12 mg/L by time-kill analysis
[36] = tested on: Pichia kudriavzevii; test: Fungicidal activity against Candida krusei CY118 bloodstream forms after 24 hrs by time-kill analysis; conditions: CY118, 24 h
[37] = tested on: Pichia kudriavzevii; test: Fungicidal activity against Candida krusei ATCC 6258 bloodstream forms after 24 hrs by time-kill analysis; conditions: ATCC 6258, 24 h

Work on `CCCCCOc1ccc(-c2ccc(-c3ccc(C(=O)N[C@H]4C[C@@H](O)[C@@H](O)NC(=O)[C@@H]5[C@@H](O)[C@@H](C)CN5C(=O)[C@H]([C@@H](C)O)NC(=O)[C@H]([C@H](O)[C@@H](O)c5ccc(O)cc5)NC(=O)[C@@H]5C[C@@H](O)CN5C(=O)[C@H]([C@@H](C)O)NC4=O)cc3)cc2)cc1` [ANIDULAFUNGIN] ({pTerphenylCO(4''-OnC5H11)}-[Orn(4R-OH,5R-OH)]T[Hyp][hTyr(3S-OH,4S-OH)]T[Pro(3S-OH,4S-Me)]; lactam 1-C) yielded an MFC [1] of 0.5 µg/mL (≈ 0.438 µM), an MIC [2] of 0.12 µg/mL (≈ 0.105 µM) and a Time [3] of 2.1 h. It also gave an MIC50 [4] of 0.25 µg/mL (≈ 0.219 µM), an MIC90 [4] of 0.5 µg/mL (≈ 0.438 µM) and a Time [5] of 1.9 h. For the same compound, the Time [6] was 13.8 h, the Time [7] was >48 h and the MIC50 [8] was 0.12 µg/mL (≈ 0.105 µM). The MIC90 [8] was 0.12 µg/mL (≈ 0.105 µM), the Time [9] was >48 h and the MIC [10] was 0.12 µg/mL (≈ 0.105 µM). The Time [11] was 12.7 h, the Time [12] was >48 h and the MFC50 [13] was 0.25 µg/mL (≈ 0.219 µM). For the same compound, the MFC90 [13] was 0.5 µg/mL (≈ 0.438 µM), the MFC ([13]; Pichia kudriavzevii, ATCC 6258, 48 h) was 0.12 µg/mL (≈ 0.105 µM) and the Time [14] was 6.7 h. It also gave an MFC [15] of 0.5 µg/mL (≈ 0.438 µM), a Time [16] of 6.9 h and an MFC [17] of 0.12 µg/mL (≈ 0.105 µM). The MIC [18] was 0.12 µg/mL (≈ 0.105 µM), the MFC [19] was 0.5 µg/mL (≈ 0.438 µM) and the MFC [20] was 0.5 µg/mL (≈ 0.438 µM). It also gave an MIC [21] of 0.12 µg/mL (≈ 0.105 µM), an MIC50 [22] of 0.12 µg/mL (≈ 0.105 µM) and an MIC90 [22] of 0.25 µg/mL (≈ 0.219 µM). It also gave a Time [23] of 19.1 h, a Time [24] of 25.5 h and an MIC [25] of 0.06 µg/mL (≈ 0.0526 µM). The MIC [26] was 0.12 µg/mL (≈ 0.105 µM), the MFC [27] was 0.25 µg/mL (≈ 0.219 µM) and the Time [28] was 7.7 h. For the same compound, the MIC [29] was 0.5 µg/mL (≈ 0.438 µM), the MIC50 [30] was 0.12 µg/mL (≈ 0.105 µM) and the MIC90 [30] was 0.25 µg/mL (≈ 0.219 µM). For the same compound, the Time [31] was 20.68 h, the Time [32] was 6.4 h and the Time [33] was 22.4 h. The MIC [34] was 0.03 µg/mL (≈ 0.0263 µM), the Time [35] was >48 h and the MFC [36] was 8 µg/mL (≈ 7.02 µM). It also gave an MFC [37] of 0.25 µg/mL (≈ 0.219 µM).
